{"source": "patent US6821774B1", "about": "“Compositions and methods for increasing cholesterol efflux and raising HDL using ATP binding cassette transporter ABC1” (CV Therapeutics, Inc., priority 1999, dated 2004)", "key": {"ABC1": {"molecular_target": "ABC1 (Mus musculus, UniProt P41233)", "sequence (P41233 whole entry)": "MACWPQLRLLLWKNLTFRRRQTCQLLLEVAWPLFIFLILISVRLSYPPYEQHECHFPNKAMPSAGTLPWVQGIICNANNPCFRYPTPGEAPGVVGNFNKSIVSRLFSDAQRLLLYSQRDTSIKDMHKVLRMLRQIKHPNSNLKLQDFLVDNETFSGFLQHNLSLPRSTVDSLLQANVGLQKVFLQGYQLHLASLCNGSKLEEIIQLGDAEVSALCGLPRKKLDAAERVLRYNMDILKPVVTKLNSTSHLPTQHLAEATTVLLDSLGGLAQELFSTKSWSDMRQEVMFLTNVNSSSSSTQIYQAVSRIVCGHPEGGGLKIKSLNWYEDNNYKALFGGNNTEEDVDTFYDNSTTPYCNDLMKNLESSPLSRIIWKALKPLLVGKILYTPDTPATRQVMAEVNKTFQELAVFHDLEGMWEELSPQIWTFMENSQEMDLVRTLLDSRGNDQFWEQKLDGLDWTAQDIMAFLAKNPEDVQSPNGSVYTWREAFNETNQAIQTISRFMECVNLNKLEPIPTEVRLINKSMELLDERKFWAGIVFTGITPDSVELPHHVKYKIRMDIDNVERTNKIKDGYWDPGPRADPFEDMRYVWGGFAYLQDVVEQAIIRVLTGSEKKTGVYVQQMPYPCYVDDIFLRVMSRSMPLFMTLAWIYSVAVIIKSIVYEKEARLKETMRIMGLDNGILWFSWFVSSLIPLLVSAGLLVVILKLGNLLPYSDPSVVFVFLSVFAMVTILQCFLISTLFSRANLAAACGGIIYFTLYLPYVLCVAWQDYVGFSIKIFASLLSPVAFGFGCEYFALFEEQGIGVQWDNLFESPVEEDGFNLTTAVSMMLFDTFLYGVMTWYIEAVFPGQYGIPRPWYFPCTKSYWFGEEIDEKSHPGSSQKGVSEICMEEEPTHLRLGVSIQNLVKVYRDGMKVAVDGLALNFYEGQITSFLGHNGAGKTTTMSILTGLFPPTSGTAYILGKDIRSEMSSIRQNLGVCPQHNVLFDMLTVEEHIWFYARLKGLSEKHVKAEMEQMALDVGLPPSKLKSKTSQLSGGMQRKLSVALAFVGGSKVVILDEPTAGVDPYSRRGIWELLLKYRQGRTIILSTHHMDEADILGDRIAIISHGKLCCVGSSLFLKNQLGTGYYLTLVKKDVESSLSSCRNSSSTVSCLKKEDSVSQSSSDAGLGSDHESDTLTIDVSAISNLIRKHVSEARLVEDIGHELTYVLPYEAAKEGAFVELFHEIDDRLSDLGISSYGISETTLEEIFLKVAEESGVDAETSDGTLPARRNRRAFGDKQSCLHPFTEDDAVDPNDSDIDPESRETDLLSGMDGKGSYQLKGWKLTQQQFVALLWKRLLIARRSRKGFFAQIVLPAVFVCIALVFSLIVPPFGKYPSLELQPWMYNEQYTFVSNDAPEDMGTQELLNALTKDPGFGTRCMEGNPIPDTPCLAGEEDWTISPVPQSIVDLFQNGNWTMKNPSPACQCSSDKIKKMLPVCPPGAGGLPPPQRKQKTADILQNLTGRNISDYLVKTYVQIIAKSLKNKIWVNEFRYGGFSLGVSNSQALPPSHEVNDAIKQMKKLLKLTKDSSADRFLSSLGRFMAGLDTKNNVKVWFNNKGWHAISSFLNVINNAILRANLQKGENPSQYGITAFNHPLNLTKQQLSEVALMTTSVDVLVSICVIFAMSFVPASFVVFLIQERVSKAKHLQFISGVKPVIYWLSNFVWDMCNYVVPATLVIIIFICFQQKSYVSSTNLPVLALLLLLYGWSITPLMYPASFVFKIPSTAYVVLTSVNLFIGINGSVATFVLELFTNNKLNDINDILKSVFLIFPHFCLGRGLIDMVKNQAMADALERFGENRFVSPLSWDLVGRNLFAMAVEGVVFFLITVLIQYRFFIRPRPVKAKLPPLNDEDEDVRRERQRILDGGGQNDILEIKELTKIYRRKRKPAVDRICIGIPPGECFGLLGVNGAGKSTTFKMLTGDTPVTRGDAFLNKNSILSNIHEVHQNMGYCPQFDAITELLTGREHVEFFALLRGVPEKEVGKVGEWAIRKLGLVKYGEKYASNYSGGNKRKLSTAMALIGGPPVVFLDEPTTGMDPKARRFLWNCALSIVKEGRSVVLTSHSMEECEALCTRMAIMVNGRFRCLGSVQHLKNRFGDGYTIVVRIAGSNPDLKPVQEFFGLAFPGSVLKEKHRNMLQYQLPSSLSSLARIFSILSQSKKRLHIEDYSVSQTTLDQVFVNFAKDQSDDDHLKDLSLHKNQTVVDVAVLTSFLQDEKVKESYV", "settings": "Becq et al. 1997; Hamon et al. 1997; cited from earlier work"}, "normal fibroblasts [1]": {"tested_on": "normal fibroblasts", "assay": "Apo A-I-mediated cholesterol efflux from normal fibroblasts in the presence of ABC1 transport inhibitors", "assay_type": "cell-based, human", "settings": "6 hours; 5 μg/ml apo A-I; 0, 0.2 mM or 0.4 mM inhibitor", "method": "To test whether inhibition of ABC1 could affect the process of apolipoprotein-mediated cholesterol efflux, two compounds reported to be ABC1 inhibitors were tested in assays which monitor apolipoprotein mediated cholesterol efflux. […] The apolipoprotein-mediated cholesterol efflux assays were performed as described in Example 1 with the noted changes. Cholesterol-loaded and [^3H]cholesterol-labeled normal fibroblasts (n=3) were incubated for 6 hours with or without 5 μg/ml apo A-1 and either 0, 0.2 mM, or 0.4 mM DIDS. In addition, cholesterol-loaded and [^3H]cholesterol-labeled normal fibroblasts (n=3) were incubated for 6 hours with or without 5 μg/ml apo A-I and either 0, 0.2 mM, or 0.4 mM BSP. […] The results are shown in FIG. 5 as the mean±SD (n=3) of efflux in the presence of apo A-I after subtraction of values for apo A-I-free medium. […] The results of these tests mimic the efflux defect in fibroblasts derived from patients with TD, described in Example 1."}, "ABC1 mRNA [2]": {"tested_on": "ABC1 mRNA", "assay": "ABC1 mRNA expression by RT-PCR in normal fibroblasts", "assay_type": "cell-based, human", "method": "(§1) To determine whether ABC1 plays a rate-limiting role in cellular sterol efflux, the synthesis of ABC1 was measured under various cellular conditions related to cholesterol efflux processes. Specifically, normal fibroblasts and TD fibroblasts were individually exposed to conditions of excess cAMP, cholesterol, or Apo A-I. Cell cultures of normal skin fibroblasts and TD1 and TD2 fibroblasts were prepared as described in Example 1. The level of ABC1 mRNA was measured by RT-PCR. Cell cultures: Immortalized cell cultures of normal skin fibroblasts and TD1 and TD2 fibroblasts were prepared as described in Example 1. Cells were grown to subconfluence in DMEM/10% FBS before replacement with DMEM/BSA and the indicated additive for 24 or 48 hours. RNA was prepared as described in Example 2. RT-PCR: Quantitative PCR was carried out using the GeneAmp 5700 Sequence Detection System (Perkin-Elmer Applied Biosystems, Foster City, Calif.). Briefly, 500 ng of DNase-treated mRNA was reverse transcribed using random hexamer primers at 2.5 μM. Approximately 5% of this reaction was amplified by PCR using the SYBR green core kit (PE Applied Biosystems, Foster City, Calif.; Cat. #4304886) and human ABC1 primers […] […] The mRNA in each sample was quantitated by detecting the increase in fluorescence caused by SYBR green binding to the double-stranded amplification product generated during each PCR cycle. […]"}, "ABC1 protein": {"tested_on": "ABC1 protein", "assay": "Cell-surface labeling and immunoprecipitation of ABC1 protein in normal and TD1 fibroblasts", "assay_type": "cell-based, human", "settings": "serum deprivation and cholesterol-loading (30 μg/ml, 48 hours), normal and TD1 cells", "description": "Cell-surface labeling and immunoprecipitation was used to determine whether increased expression of ABC1 protein in the plasma membrane is correlated with an increase in cholesterol efflux (FIG. 10). The relative amount of ABC1 on the cell surface was determined by cross-linking surface proteins on intact cells with the membrane-impermeable agent sulfo-NHS-biotin, followed by the steps of membrane solubilization, immunoprecipitation with ABC1 antibody, SDS-PAGE, and detection with streptavidin.\nBoth normal and TD1 cells were cultured under control conditions and conditions known to increase apolipoprotein-mediated cholesterol efflux (Oram, et al., J. Lip. Res., 40: 1769-1781 (1999)). […] Cholesterol-loaded cells were grown to confluence in DMEM/10% FBS and then incubated in DMEM/BSA for 48 hours with 30 μg/ml cholesterol plus 18 hours with no additives (cholesterol). […]\nDetection of ABC1 Protein: The eluted biotinylated proteins were subjected to SDS-PAGE (6% gel; 150V, 5 hours) and transferred to nitrocellulose membrane (200 mA, 18 hours). The nitrocellulose was probed with streptavidin-horse radish peroxidase (Amersham Pharmacia, Piscataway, N.J.; Cat. #RPN 1231) diluted 300-fold and detected by enhanced chemiluminescence labeling (ECL) according to vendor's protocol (Amersham Pharmacia, Piscataway, N.J.). […]"}, "RAW 264.7 cells [3]": {"tested_on": "RAW 264.7 cells", "assay": "Apo A-I-mediated cholesterol efflux assay in cholesterol-loaded RAW 264.7 macrophage cells", "assay_type": "cell-based, mouse", "settings": "apo A-I (20 μg/ml) and rolipram 50 μM"}, "ABC1 mRNA [4]": {"tested_on": "ABC1 mRNA", "assay": "Apo A-I-mediated cholesterol efflux from normal skin fibroblasts loaded with antisense oligonucleotide", "assay_type": "cell-based, human", "settings": "30 μM oligonucleotide; apo A-I-mediated efflux after 12 hours", "method": "Normal skin fibroblasts were labeled with [^3H]cholesterol as described in Example 1. The cells were then loaded with oligonucleotide by scraping in the presence of either 30 μM control Morpholino oligonucleotide (5′-[…]-3′ corresponding to the antisense complement of a β-globin thalassemic mRNA; SEQ ID NO: 52) or 30 μM ABC1 antisense Morpholino oligonucleotide (5′-[…]-3′; SEQ ID NO: 53) and reseeding on new dishes. Control cells were mock-loaded after [^3H]cholesterol-labeling by scraping and reseeding in the absence of oligonucleotide. […] The results are shown in FIG. 6 as the mean±SEM of three separate experiments, normalized to the value for apo A-I-specific efflux in the absence of oligonucleotide in each experiment."}, "TD fibroblasts": {"tested_on": "TD fibroblasts", "assay": "Cholesterol efflux from cholesterol-laden Tangier disease fibroblasts", "assay_type": "cell-based, human", "settings": "albumin plus apo A-I 10 μg/ml", "method": "(§2) Cell Cultures: Human fibroblasts were obtained from skin explants from two normal subjects (NL1) and three unrelated patients with Tangier disease ([…]). TD1 cells were obtained from a person with extremely low plasma HDL cholesterol and apo A-I levels and clinical symptoms typical of Tangier disease. […] TD3 cells were obtained from a person with Tangier disease who presented with orange tonsil remnants, asymmetrical motor neuropathy, plasma HDL cholesterol of 5 mg/dL, and LDL cholesterol of 16 mg/dL (Lawn et at., J. Clin. Invest., 104, R25-R31 (1999)). The normal cells and TD subject cells were immortalized as described in Oram et al., J. Lipid Res., 40: 1769-1781 (1999). Briefly, the cells were transfected with amphotropic retroviruses containing vectors with inserts of human papillomavirus 16 oncogenes E6 and E7 and a neomycin resistance selectable marker. Control cells were infected with vector alone (mock-infected). Pooled cell populations were selected in the presence of G418 for two passages, after which G418 was excluded from the medium. Fibroblasts were used between the fifth and sixteenth passage (primary) or sixth and fourteenth passage (immortalized). The immortalized normal and TD cells were seeded into 16-mm wells or 35-mm dishes and grown to confluence in Dulbecco's modified Eagle's medium (DMEM) plus 10% fetal bovine serum (FBS) before experimental use. […]"}, "normal fibroblasts [5]": {"tested_on": "normal fibroblasts", "assay": "Cholesterol efflux from cholesterol-laden normal fibroblasts", "assay_type": "cell-based, human", "settings": "albumin plus apo A-I 10 μg/ml; up to 48 hours", "method": "as §2"}, "ABC1 mRNA [6]": {"tested_on": "ABC1 mRNA", "assay": "ABC1 mRNA expression by RT-PCR in Tangier disease (TD1, TD2) fibroblasts", "assay_type": "cell-based, human", "settings": "10 μg/ml apo A-I", "method": "as §1"}, "RAW 264.7 cells [7]": {"tested_on": "RAW 264.7 cells", "assay": "Apo A-I-mediated cholesterol efflux assay in cholesterol-loaded RAW 264.7 macrophage cells", "assay_type": "cell-based, mouse", "method": "To determine whether ligands for nuclear receptors affect the process of apolipoprotein-mediated cholesterol efflux, various ligands were tested using the apo A-I-mediated cholesterol efflux assay described in Example 12. The nuclear receptor superfamily includes several members, such as the liver receptor LXR, the retinoid receptor RXR, and the peroxisome proliferator-activated receptor PPAR, which have been implicated in lipid metabolism (Russell. D. W., Cell, 97:539-542 (1999); Spiegelman, B. W., Cell, 93:153-155 (1998); Janowski et al., Nature, 383:728-731 (1996)). […] Using the above-described assay, 9 cis-retinoic acid (RXR ligand), oxysterol (LXR ligand), and fenfibrate (PPAR ligand) was tested to determine the effect on cholesterol efflux.\nTo determine whether eicosanoids affect the process of apolipoprotein-mediated cholesterol efflux, PGE1 and PG12 were tested using the apo A-I-mediated cholesterol efflux assay described in Example 12."}}}
{"compound": "O=C1OC(c2ccc(O)c(S(=O)(=O)O)c2)(c2ccc(O)c(S(=O)(=O)O)c2)c2c(Br)c(Br)c(Br)c(Br)c21", "note": "[BSP, sulphobromophthaleine]", "values": [{"measurement": "anion transport activities of ABC1", "setting": "ABC1", "value": "inhibit anion transport activities of ABC1 in a dose-dependent fashion"}, {"measurement": "apo A-I-mediated efflux of tritiated cholesterol", "setting": "normal fibroblasts [1]", "value": "inhibited"}]}
{"compound": "CC(C)CCC[C@@H](C)[C@H]1CC[C@H]2[C@@H]3CC=C4C[C@@H](O)CC[C@]4(C)[C@H]3CC[C@]12C", "note": "[cholesterol]", "values": [{"measurement": "increase in ABC1 mRNA", "setting": "ABC1 mRNA [2]; 30 μg/ml free cholesterol, 48 hours, serum-free medium, normal fibroblasts", "value": "approximately 17 fold"}, {"measurement": "cell-surface expression of ABC1", "setting": "ABC1 protein", "value": "markedly increased"}]}
{"compound": "COc1ccc(C2CNC(=O)C2)cc1OC1CCCC1", "note": "(stereo not shown) [rolipram]", "values": [{"measurement": "cholesterol efflux (percentage of total radiolabeled cholesterol appearing in the medium)", "setting": "RAW 264.7 cells [3]", "value": 17, "unit": "%"}]}
{"compound": "ABC1 antisense Morpholino oligonucleotide: 5′-CATGTTGTTCATAGGGTGGGTAGCTC-3′; SEQ ID NO: 53 (all phosphorodiamidate morpholino (PMO))", "values": [{"measurement": "reduction in cholesterol efflux compared with control (β-globin) antisense oligonucleotide", "setting": "ABC1 mRNA [4]", "value": 50, "unit": "%"}]}
{"compound": "apo A-I: apolipoprotein cholesterol acceptor (Biodesign International)", "values": [{"measurement": "efflux of [3H]-cholesterol", "setting": "TD fibroblasts", "value": "little or no effect"}, {"measurement": "efflux of [3H]-cholesterol", "setting": "normal fibroblasts [5]", "value": "promoted the efflux"}, {"measurement": "change in ABC1 mRNA expression", "setting": "ABC1 mRNA [2]; cholesterol-loaded normal fibroblasts then 10 μg/ml apo A-I", "value": "marked decrease"}, {"measurement": "change in ABC1 expression", "setting": "ABC1 mRNA [6]; cholesterol-loaded TD1 cells", "value": "did not alter ABC1 expression"}, {"measurement": "change in ABC1 expression", "setting": "ABC1 mRNA [6]; cholesterol-loaded TD2 cells", "value": "slightly increased ABC1 expression"}, {"measurement": "cholesterol efflux (percentage of total radiolabeled cholesterol appearing in the medium)", "setting": "RAW 264.7 cells [7]; apo A-I only (20 μg/ml), control cells without apo A-I 3%", "value": 5, "unit": "%"}, {"measurement": "cholesterol efflux counts", "setting": "RAW 264.7 cells [7]; control cells (apo A-I only)", "value": 1890, "unit": "c.p.m."}]}
